Laboratory results from US11530244B2, “Cyclic polypeptides for PCSK9 inhibition” (priority 2018, dated 2022).
Starred links: 1 amine or outer side, 2 acyl side, 3 side chain; linkers in the order of their positions; H or OH if unused. Positions of bridges follow the written chain, without caps; N, C: chain ends. Non-standard residues stand in square brackets, D forms with d. Residues, ends and D or L forms follow the SMILES beside them. X43 = O=C(CC[S+]([O-])Cc1cc(F)cc(CSCCN[*:1])c1)[*:2]; X25 = O=C([C@H](Cc1cccc(OCC=[*:3])c1)N[*:1])[*:2]; Phe(4-COOH) = N[C@@H](Cc1ccc(C(=O)O)cc1)C(=O)O; Trp(5-F) = N[C@@H](Cc1c[nH]c2ccc(F)cc12)C(=O)O; Trp(6-F) = N[C@@H](Cc1c[nH]c2cc(F)ccc12)C(=O)O; Asp(3,3-Me2) = CC(C)(C(=O)O)[C@H](N)C(=O)O; X42 = CN([C@@H](CCC=[*:3])C(=O)[*:2])[*:1]; Bip = N[C@@H](Cc1ccc(-c2ccccc2)cc1)C(=O)O; X13 = O=C(CCCCc1cccc(CCCCN[*:1])c1)[*:2]; mXylylene = c1cc(C[*:1])cc(C[*:2])c1; Val(3-OH) = CC(C)(O)[C@H](N)C(=O)O; X22 = Oc1cc(C[*:1])cc(C[*:2])c1; αMeP = C[C@@]1(C(=O)O)CCCN1; Orn = NCCC[C@H](N)C(=O)O; Ahx = NCCCCCC(=O)O; Mpa = O=C(O)CCS

Tests used:
[1] = target: human PCSK9 / human LDLR EGFa domain interaction (Homo sapiens (Human), UniProt Q8NBP7); assay: TR-FRET assay of inhibition of the PCSK9-LDLR protein-protein interaction; format: binding; conditions: TR-FRET, 20 nM human PCSK9, 20 nM human LDLR EGFa domain, 2 hours room temperature; read-out: IC50
human PCSK9 / human LDLR EGFa domain interaction, sequence (Q8NBP7 153-692): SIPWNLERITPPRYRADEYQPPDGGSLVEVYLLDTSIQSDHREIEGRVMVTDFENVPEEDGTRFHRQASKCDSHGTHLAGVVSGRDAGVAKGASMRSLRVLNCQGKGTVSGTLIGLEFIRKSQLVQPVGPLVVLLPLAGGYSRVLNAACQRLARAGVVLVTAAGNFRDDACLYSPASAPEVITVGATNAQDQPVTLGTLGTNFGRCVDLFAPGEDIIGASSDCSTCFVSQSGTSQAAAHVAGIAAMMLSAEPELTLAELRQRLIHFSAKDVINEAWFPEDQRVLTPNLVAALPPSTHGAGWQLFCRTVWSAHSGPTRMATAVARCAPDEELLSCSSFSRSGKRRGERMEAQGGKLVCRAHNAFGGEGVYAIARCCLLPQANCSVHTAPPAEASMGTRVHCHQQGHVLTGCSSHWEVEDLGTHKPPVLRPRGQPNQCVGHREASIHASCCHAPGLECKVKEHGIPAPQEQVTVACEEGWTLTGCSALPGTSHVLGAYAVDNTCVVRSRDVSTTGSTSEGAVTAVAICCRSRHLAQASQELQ
human PCSK9 / human LDLR EGFa domain interaction, sequence (Q8NBP7 31-152 partner): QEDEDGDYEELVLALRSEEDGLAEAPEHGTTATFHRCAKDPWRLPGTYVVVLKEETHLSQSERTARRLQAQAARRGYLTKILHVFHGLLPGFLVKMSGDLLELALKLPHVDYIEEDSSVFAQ
Summary of the method: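 Inhibition of PCSK9 binding to the LDLR EGFa domain, each protein at 20 nM, detected by TR-FRET using streptavidin and anti-His donor/acceptor labels (5 nM). Two-hour room-temperature incubation in calcium-containing HEPES buffer.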

[2] = target: PCSK9 (Homo sapiens (Human), UniProt Q8NBP7); assay: PCSK9 Alexa FRET Standard assay (displacement of AlexaFluor647 tagged cyclic peptide Reagent A); format: binding; conditions: PCSK9 Alexa FRET Standard assay, 0.5 nM PCSK9, 20 nM AF cyclic peptide Reagent A; read-out: IC50
PCSK9, sequence (Q8NBP7 153-692): as the sequence (Q8NBP7 153-692) above
Summary of the method: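 TR-FRET displacement: 0.5 nM biotinylated PCSK9 with 1.25 nM Strep-Eu and 20 nM AlexaFluor-tagged cyclic peptide (final) in 50 mM HEPES pH 7.4, 0.15 M NaCl, 5 mM CaCl2, 0.01% BSA, 0.01% P20, ≥2 h at room temperature. IC50 from sigmoidal fit, converted to Ki via peptide KD; falling Eu counts flagged false positives.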

| Compound | IC50 [1] | IC50 [2] |
| --- | --- | --- |
| C[C@@]12CCCN1C(=O)[C@H](Cc1ccc(O)cc1)NC(=O)[C@H](Cc1cnc[nH]1)NC(=O)[C@H](CC(=O)O)NC(=O)[C@H](Cc1c[nH]c3cc(F)ccc13)NC(=O)[C@H](Cc1c[nH]c3ccc(F)cc13)NC(=O)CNC(=O)CCCCCNC(=O)c1ccc(cc1)C[C@@H](C(N)=O)NC2=O [Compound 313] ([Ahx]G[Trp(5-F)][Trp(6-F)]DHY[αMeP][Phe(4-COOH)]-NH2; lactam N-9) | 1000 to 12100 nM | 1000 to 12100 nM |
| COc1ccc(C[C@@H]2NC(=O)[C@H]([C@@H](C)O)NC(=O)[C@@H]3CCCN3C(=O)[C@H](Cc3c[nH]c4ccc(F)cc34)NC(=O)[C@H](Cc3c[nH]c4ccc(F)cc34)NC(=O)[C@@H](C)NC(=O)[C@H](C)NC(=O)CCCCc3cccc(c3)CCCCNC(=O)[C@@H]3CCCN3C2=O)cc1 [Compound 047] (cyclo(A[dA][Trp(5-F)][Trp(5-F)]PTY(Me)P[X13])) | 100 to 1000 nM | 100 to 1000 nM |
| COc1ccc(C[C@@H]2NC(=O)[C@H]([C@@H](C)O)NC(=O)[C@@H]3CCCN3C(=O)[C@H](Cc3c[nH]c4ccc(F)cc34)NC(=O)[C@H](Cc3c[nH]c4ccc(F)cc34)NC(=O)[C@@H](C)NC(=O)[C@H](CCCCN)NC(=O)CCSCc3cc(O)cc(c3)CSC[C@@H](C(N)=O)NC(=O)[C@]3(C)CCCN3C2=O)cc1 [Compound 060] ([Mpa]K[dA][Trp(5-F)][Trp(5-F)]PTY(Me)[αMeP]C-NH2; linker 1-10 via X22) | 21000 to 50000 nM | 21000 to 50000 nM |
| C[C@H]1NC(=O)[C@H](CCCCN)NC(=O)CCSCc2cccc(c2)CSC[C@@H](C(N)=O)NC(=O)[C@]2(C)CCCN2C(=O)[C@H](Cc2ccc(O)cc2)NC(=O)[C@H](Cc2cnc[nH]2)NC(=O)[C@H](C(C)(C)C(=O)O)NC(=O)[C@H](Cc2c[nH]c3ccc(F)cc23)NC(=O)[C@H](Cc2c[nH]c3ccc(F)cc23)NC1=O [Compound 361] ([Mpa]K[dA][Trp(5-F)][Trp(5-F)][Asp(3,3-Me2)]HY[αMeP]C-NH2; linker 1-10 via mXylylene) | 0.1 to 100 nM | 100 to 1000 nM |
| CC(C)[C@H]1NC(=O)[C@H](CCCCN)NC(=O)CCSCc2cccc(c2)CSC[C@@H](C(N)=O)NC(=O)[C@]2(C)CCCN2C(=O)[C@H](Cc2ccc(O)cc2)NC(=O)[C@H]([C@@H](C)O)NC(=O)[C@@H]2CCCN2C(=O)[C@H](Cc2c[nH]c3ccc(F)cc23)NC(=O)[C@H](Cc2c[nH]c3ccc(F)cc23)NC1=O [Compound 052] ([Mpa]K[dV][Trp(5-F)][Trp(5-F)]PTY[αMeP]C-NH2; linker 1-10 via mXylylene) | 1000 to 12100 nM | 1000 to 12100 nM |
| CC(C)(O)[C@@H]1NC(=O)CCSCc2cccc(c2)CSC[C@@H](C(N)=O)NC(=O)[C@]2(C)CCCN2C(=O)[C@H](Cc2ccc(O)cc2)NC(=O)[C@H](Cc2cnc[nH]2)NC(=O)[C@H](CC(=O)O)NC(=O)[C@H](Cc2c[nH]c3ccc(F)cc23)NC(=O)[C@H](Cc2c[nH]c3ccc(F)cc23)NC(=O)CNC1=O [Compound 374] ([Mpa][Val(3-OH)]G[Trp(5-F)][Trp(5-F)]DHY[αMeP]C-NH2; linker 1-10 via mXylylene) | 0.1 to 100 nM | 100 to 1000 nM |
| C[C@@]12CCCN1C(=O)[C@H](Cc1ccc(O)cc1)NC(=O)[C@H](Cc1cnc[nH]1)NC(=O)[C@H](CC(=O)O)NC(=O)[C@H](Cc1c[nH]c3ccc(F)cc13)NC(=O)[C@H](Cc1c[nH]c3ccc(F)cc13)NC(=O)CNC(=O)[C@H](CCCN)NC(=O)CCSCc1cccc(c1)CSC[C@@H](C(N)=O)NC2=O [Compound 248] ([Mpa][Orn]G[Trp(5-F)][Trp(5-F)]DHY[αMeP]C-NH2; linker 1-10 via mXylylene) | 0.1 to 100 nM | 100 to 1000 nM |
| NCCCC[C@@H]1NC(=O)CCSCc2cccc(c2)CSC[C@@H](C(N)=O)NC(=O)[C@@H]2CCCN2C(=O)[C@H](Cc2ccc(O)cc2)NC(=O)[C@H](Cc2c[nH]cn2)NC(=O)[C@H](CC(=O)O)NC(=O)[C@H](Cc2c[nH]c3ccc(F)cc23)NC(=O)[C@H](Cc2ccc(-c3ccccc3)cc2)NC(=O)CNC1=O [Compound 210] ([Mpa]KG[Bip][Trp(5-F)]DHYPC-NH2; linker 1-10 via mXylylene) | 1000 to 12100 nM | 1000 to 12100 nM |
| COc1ccc(C[C@@H]2NC(=O)[C@H]([C@@H](C)OC)NC(=O)[C@@H]3CC/C=C/COc4cccc(c4)C[C@H](NC(=O)[C@@H](C)NC(=O)[C@H](C)NC(=O)CC[S+]([O-])Cc4cc(F)cc(c4)CSCCNC(=O)[C@]4(C)CCCN4C2=O)C(=O)N[C@@H](Cc2c[nH]c4ccc(F)cc24)C(=O)N3C)cc1 (stereo partly drawn) [Compound 507] (cyclo(A[dA][X25][Trp(5-F)][X42]T(Me)Y(Me)[αMeP][X43]); staple (E) 3-5) | 0.1 to 100 nM | 0.11 to 100 nM |
